Measured values reported in patent US20140309186A1, “Metabolomics-Based Identification of Disease-Causing Agents” (Georgia Tech Research Corporation, priority 2007, published 2014).

Tests used:
[1] = tested on: Jurkat cells; assay: Growth inhibition of Jurkat cells, resazurin-based in vitro toxicology assay (TOX-8); type: cell-based, Human; details: for activity at 100 µM: Homo sapiens, Jurkat, read-out: Jurkat cell growth as percentage of the untreated control
[2] = tested on: human lymphoblast cells; assay: Growth of human lymphoblast cells cultured in identical conditions; type: cell-based; details: 50 μM
Experimental: The positive association between lowered metabolite levels in Jurkat cells as predicted by CoMet and antiproliferative activity of the metabolite in that cell line is highly significant (Fisher's exact test two-tailed p-value=8.7×10^−6). Furthermore, when the effect of these metabolites on growth inhibition was tested in Jurkat and human lymphoblast cells cultured in identical conditions, a pattern of selectivity of the antiproliferative effect towards the cancer cell line became evident.

[3] = tested on: Jurkat cells; details: literature search; cited from earlier work
[4] = tested on: HL-60 cells; details: literature; cited from earlier work
[5] = tested on: HeLa cell; details: literature; cited from earlier work
[6] = biological target: T1, tryptophanyl-tRNA synthetase (Homo sapiens, UniProt P23381); details: literature; cited from earlier work
T1 construct: host or cells: HeLa (cell context of the cited finding)
T1 sequence (P23381 1-471): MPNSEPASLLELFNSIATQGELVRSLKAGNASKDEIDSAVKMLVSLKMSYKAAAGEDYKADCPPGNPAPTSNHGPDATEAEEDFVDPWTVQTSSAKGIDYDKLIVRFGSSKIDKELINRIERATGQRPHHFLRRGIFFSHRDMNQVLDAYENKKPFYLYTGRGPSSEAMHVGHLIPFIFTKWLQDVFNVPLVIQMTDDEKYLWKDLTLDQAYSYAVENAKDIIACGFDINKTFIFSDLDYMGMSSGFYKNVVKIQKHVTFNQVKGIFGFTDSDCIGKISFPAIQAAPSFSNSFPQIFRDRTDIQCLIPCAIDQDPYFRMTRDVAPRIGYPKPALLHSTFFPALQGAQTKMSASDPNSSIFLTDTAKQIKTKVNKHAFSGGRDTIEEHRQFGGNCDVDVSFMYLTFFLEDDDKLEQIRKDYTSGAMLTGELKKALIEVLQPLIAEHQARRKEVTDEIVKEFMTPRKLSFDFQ

[7] = tested on: OVCAR-3 cells; details: literature; cited from earlier work
[8] = tested on: normal T lymphocytes; details: cited from earlier work
[9] = tested on: malignant erythroblasts; details: literature; cited from earlier work
[10] = tested on: RNA polymerase II; details: literature; cited from earlier work
[11] = tested on: HT29 colon cancer cells; details: literature; cited from earlier work
[12] = biological target: T2, histone deacetylase 1 (Homo sapiens, UniProt Q13547); details: literature; cited from earlier work
T2 construct: host or cells: HT29 (cell context of the cited finding)

[13] = tested on: OVCAR-3 cells; assay: Growth inhibition of OVCAR-3 cells, resazurin-based in vitro toxicology assay (TOX-8); type: cell-based, human; details: single metabolite, 100 μM, 72 hours
[14] = single metabolite, 100 μM, 72 hour treatment, control = 100%, lower = stronger inhibition

T2 sequence (Q13547 whole entry): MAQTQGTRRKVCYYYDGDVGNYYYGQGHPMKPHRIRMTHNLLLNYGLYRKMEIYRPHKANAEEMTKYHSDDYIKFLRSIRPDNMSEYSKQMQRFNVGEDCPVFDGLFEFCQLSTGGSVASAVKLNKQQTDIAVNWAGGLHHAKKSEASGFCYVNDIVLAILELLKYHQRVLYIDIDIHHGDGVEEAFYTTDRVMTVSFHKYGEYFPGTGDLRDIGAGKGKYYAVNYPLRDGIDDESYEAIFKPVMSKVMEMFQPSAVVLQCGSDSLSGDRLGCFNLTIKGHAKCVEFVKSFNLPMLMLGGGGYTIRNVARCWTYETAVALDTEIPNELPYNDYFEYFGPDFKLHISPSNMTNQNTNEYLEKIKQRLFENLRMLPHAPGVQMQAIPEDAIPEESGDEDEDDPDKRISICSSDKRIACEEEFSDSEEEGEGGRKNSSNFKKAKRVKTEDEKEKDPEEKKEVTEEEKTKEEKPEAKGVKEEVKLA

Molecule | activity at 100 µM [1, 14] [%] | anticancer activity in Jurkat cells known from the literature [3] | further results
C=CC1=C(C)/C(=C/c2[nH]c(Cc3[nH]c(/C=C4\NC(=O)C(C)=C4C=C)c(C)c3CCC(=O)O)c(CCC(=O)O)c2C)NC1=O [bilirubin] | 21.3 |  | 
C[C@]12CC[C@H](O)CC1=CC[C@@H]1[C@@H]2CC[C@]2(C)C(=O)CC[C@@H]12 [dehydroepiandrosterone] |  |  | effect on growth of Jurkat cells (in words) ([1]; 50 μM): inhibited the growth; effect on proliferation of lymphoblasts (in words) [2]: stimulated the proliferation
sphingolipid GD3 |  | active in Jurkat cells | 
menaquinone |  |  | Jurkat cell growth as percentage of the untreated control [1, 14]: 11.3%; effect on HL-60 cells [4]: induce G0/G1 arrest, differentiation, and apoptosis
CC(=O)CO [hydroxyacetone] | > 70 |  | 
C[C@]12CC[C@H]3[C@@H](CCC4=CC(=O)CC[C@@]43C)[C@@H]1CC[C@@H]2O [testosterone] |  | active in Jurkat cells | 
NCCc1c[nH]c2ccccc12 [tryptamine] |  |  | effect on HeLa cell growth [5]: effective inhibitor; effect on tryptophanyl-tRNA synthetase [6]: competitive inhibition
CCCCCCCCCCCCCCCCC(O)C(=O)O (stereo not drawn) [α-hydroxystearic acid] | 67.8 |  | 
Cc1cc2nc[nH]c2cc1C [5,6-di-ethylbenzimidazole, 5,6-dimethylbenzimidazole] | 61.4 |  | 
CCCCC/C=C\C/C=C\CCCCCCCC(=O)O [linoleic acid] |  | active in Jurkat cells | 
COc1ccc2[nH]cc(CCNC(C)=O)c2c1 [melatonin] |  | active in Jurkat cells | 
C=C1/C(=C\C=C2/CCC[C@]3(C)[C@@H]([C@H](C)CCCC(C)(C)O)CC[C@@H]23)C[C@@H](O)C[C@@H]1O [calcitriol] |  |  | anticancer activity in OVCAR-3 cells previously demonstrated [7]: anticancer activity
O=C(O)CC(O)(CC(=O)O)C(=O)O [citric acid] | > 90 |  | 
NC(=O)c1cccnc1 [nicotinamide] |  | active in Jurkat cells | 
CCCCC[C@H](O)/C=C/[C@H]1C(=O)C[C@H](O)[C@@H]1C/C=C\CCCC(=O)O [prostaglandin D2] |  | induces apoptosis | effect on viability of normal T lymphocytes [8]: without inhibiting the viability
OC[C@H]1O[C@@H](n2cnc3c(O)ncnc32)C[C@@H]1O [2′-deoxyinosine] |  | active in Jurkat cells | 

Molecule | activity at 100 µM [1, 14] [%] | anticancer activity in Jurkat cells known from the literature [3] | further results
Cc1cc2nc3c(=O)[nH]c(=O)nc-3n(C[C@H](O)[C@H](O)[C@H](O)CO)c2cc1C [riboflavin] | > 70 |  | 
CC1=C(/C=C/C(C)=C/C=C/C(C)=C/C(=O)O)C(C)(C)CCC1 [all-trans-retinoic acid] |  |  | anticancer activity in OVCAR-3 cells previously demonstrated [7]: anticancer activity
CC(=O)C=O [methylglyoxal] |  | active in Jurkat cells | 
Clc1cc2nc[nH]c2cc1Cl [5,6-dichlorobenzimidazole] |  |  | effect on malignant erythroblasts [9]: induces differentiation; effect on RNA polymerase II [10]: inhibiting
N[C@@H](Cc1cc(I)c(Oc2ccc(O)c(I)c2)c(I)c1)C(=O)O [3′,3,5-triiodo-L-thyronine] |  |  | anticancer activity in OVCAR-3 cells previously demonstrated [7]: anticancer activity
CC(C)CCC[C@@H](C)[C@H]1CC[C@H]2[C@@H]3CC=C4C[C@@H](O)CC[C@]4(C)[C@H]3CC[C@]12C [cholesterol] | > 90 |  | 
Cc1cn([C@H]2C[C@H](O)[C@@H](CO)O2)c(=O)[nH]c1=O [thymidine] |  | antineoplastic agent | 
Nc1ncnc2c1ncn2[C@H]1C[C@H](O)[C@@H](CO)O1 [2′-deoxyadenosine] |  | active in Jurkat cells | 
Nc1nc2c(ncn2[C@H]2C[C@H](O)[C@@H](CO)O2)c(=O)[nH]1 [2′-deoxyguanosine] |  | active in Jurkat cells | 
CCCCCCCCCC(O)CCCCCCCC(=O)O (stereo not drawn) [9-hydroxystearic acid] |  |  | effect on HT29 colon cancer cells [11]: arrests HT29 colon cancer cells in G0/G1 phase; effect on histone deacetylase 1 [12]: inhibition
COc1cc(C(O)C(=O)O)ccc1O (stereo not drawn) [vanillylmandelic acid] | > 90 |  | 
CC(C)(CO)[C@@H](O)C(=O)NCCC(=O)O [pantothenic acid] | > 90 |  | 
COc1cc2c(cc1O)CC[C@@H]1[C@@H]2CC[C@]2(C)[C@@H](O)CC[C@@H]12 [2-methoxy-estradiol-17β] |  | apoptotic agent | anticancer activity in OVCAR-3 cells previously demonstrated [7]: anticancer activity
N[C@@H](CS(=O)O)C(=O)O [sulfino-L-alanine, 3-sulfino-L-alanine] |  |  | effect on growth of Jurkat cells (in words) ([1]; single metabolite, 100 μM, 72 hour treatment): did not inhibit the growth; effect on growth of OVCAR-3 cells (in words) [13]: did not inhibit the growth
Nc1nc2ncc(CNc3ccc(C(=O)N[C@@H](CCC(=O)O)C(=O)O)cc3)nc2c(=O)[nH]1 [folic acid] | > 90 |  | 
